# Data as given in patent publication US7745636B2, “Hepatitis C virus inhibitors” (Bristol-Myers Squibb Company, priority 2006, dated 2010).
# pEC50: −log10 of the molar value.
# Test system: HCV 1b-377-neo replicon cells
# Assay: HCV Replicon assay, HCV 1b-377-neo replicon cells
# Format: cell-based, HCV 1b genotype
# Settings: Hepatitis C virus, Table 2, read-out: Range (EC50 against HCV 1b)
# Procedure: An HCV Replicon assay was utilized in the present disclosure, and was prepared, conducted and validated as described in commonly owned PCT/US2006/022197 and in O'Boyle et. al. Antimicrob Agents Chemother. 2005 April; 49(4):1346-53.
# HCV 1b-377-neo replicon cells were used to test the currently described compound series as well as cells resistant to compound A due to a Y2065H mutation in NS5A (described in application PCT/US2006/022197). The compounds tested were determined to have more than 10-fold less inhibitory activity on cells resistant to compound A than wild-type cells indicating a related mechanism of action between the two compound series. Thus, the compounds of the present disclosure can be effective to inhibit the function of the HCV NS5A protein and are understood to be as effective in combinations as previously described in application PCT/US2006/022197 and commonly owned WO/O4014852. Further, the compounds of the present disclosure can be effective against the HCV 1b genotype. It should also be understood that the compounds of the present disclosure can inhibit multiple genotypes of HCV. […] In one embodiment compounds of the present disclosure are active against the 1a, 1b, 2a, 2b, 3a, 4a, and 5a genotypes.
row,SMILES,pEC50
1,"COC(=O)N[C@H](C(=O)N1CCC[C@H]1c1nc(-c2cnc(-c3ccc(-c4cnc([C@@H]5CCCN5C(=O)[C@@H](NC(=O)OC)C(C)C)[nH]4)cc3)nc2)c[nH]1)C(C)C [Example D74, methyl ((1S)-1-(((2S)-2-(5-(2-(4-(2-((2S)-1-((2S)-2-((methoxycarbonyl)amino)-3-methylbutanoyl)-2-pyrrolidinyl)-1H-imidazol-5-yl)phenyl)-5-pyrimidinyl)-1H-imidazol-2-yl)-1-pyrrolidinyl)carbonyl)-2-methylpropyl) carbamate]",9.00 to 12.00
2,"COC(=O)N[C@@H](C(=O)N[C@@H](C)c1ncc(-c2ccc(-c3ccc(-c4cnc([C@@H]5CCCN5C(=O)[C@H](NC(=O)OC)c5ccccc5)[nH]4)cn3)cc2)[nH]1)c1ccccc1 [Example 152j-12, methyl ((1R)-2-((2S)-2-(5-(6-(4-(2-((1S)-1-(((2R)-2-((methoxycarobnyl)amino)-2-phenylace-tyl)amino)eth-yl)-1H-imidazol-5-yl)phenyl)-3-pyridinyl)-1H-imidazol-2-yl)-1-pyrrolidinyl)-2-oxo-1-phenylethyl)carbamate]",9.00 to 12.00
3,"CN(C)[C@@H](C(=O)N1CCC[C@H]1c1ncc(-c2ccc(-c3ccc(-c4cnc([C@@H]5CCCN5C(=O)[C@@H](c5ccccc5)N(C)C)[nH]4)nn3)cc2)[nH]1)c1ccccc1 [Example 152j-9, (1R)-2-((2S)-2-(5-(6-(4-(2-((2S)-1-((2R)-2-(dimethylamino)-2-phenylacetyl)-2-pyrrolidinyl)-1H-imidazol-5-yl)phenyl)-3-pyridazinyl)-1H-imidazol-2-yl)-1-pyrrolidinyl)-N,N-dimethyl-2-oxo-1-phenylethanamine]",7.00 to 9.00
4,"COC(=O)N[C@H](C(=O)N1CCC[C@H]1c1ncc(-c2cnc(-c3ccc(-c4[nH]c([C@@H]5CCCN5C(=O)[C@@H](NC(=O)OC)C(C)C)nc4C(F)(F)F)cc3)nc2)[nH]1)C(C)C [Example J48, methyl ((1S)-1-(((2S)-2-(5-(2-(4-(2-((2S)-1-((2S)-2-((methoxycarbonyl)amino)-3-methylbutanoyl)-2-pyrrolidinyl)-4-(trifluoromethyl)-1H-imidazol-5-yl)phenyl)-5-pyrimidinyl)-1H-imidazol-2-yl)-1-pyrrolidinyl)carbonyl)-2-methylpropyl) carbamate]",9.00 to 12.00
5,"COC(=O)N[C@@H](C(=O)N1CCC[C@H]1c1ncc(-c2cnc(-c3ccc(-c4[nH]c([C@@H]5CCCN5C(=O)[C@H](NC(=O)OC)c5ccccc5)nc4C(F)(F)F)cc3)nc2)[nH]1)c1ccccc1 [Example J46, methyl ((1R)-2-((2S)-2-(5-(4-(5-(2-((2S)-1-((2R)-2-((methoxycarbonyl)amino)-2-phenylacetyl)-2-pyrrolidinyl)-1H-imidazol-5-yl)-2-pyrimidinyl)phenyl)-4-(trifluoromethyl)-1H-imidazol-2-yl)-1-pyrrolidinyl)-2-oxo-1-phenylethyl) carbamate]",9.00 to 12.00
6,"COC(=O)N[C@@H](C(=O)N1CCC[C@H]1c1ncc(-c2ccc(-c3ccc(-c4cnc([C@@H]5CCCN5C(=O)Cc5ccccc5)[nH]4)cc3)cc2)[nH]1)c1ccccc1 [Example 28, methyl((1R)-2-oxo-1-phenyl-2-((2S)-2-(5-(4′-(2-((2S)-1-(phenylacetyl)-2-pyrrolidinyl)-1H-imidazol-5-yl)-4-biphenylyl)-1H-imidazol-2-yl)-1-pyrrolidinyl)ethyl)carbamate]",7.00 to 9.00
7,"CCN(CC)[C@@H](C(=O)N1CCC[C@H]1c1ncc(-c2cnc(-c3ccc(-c4[nH]c([C@@H]5CCCN5C(=O)[C@@H](c5ccccc5)N(CC)CC)nc4C(F)(F)F)cc3)nc2)[nH]1)c1ccccc1 [Example J47, (1R)-2-((2S)-2-(5-(4-(5-(2-((2S)-1-((2R)-2-(diethylamino)-2-phenylacetyl)-2-pyrrolidinyl)-1H-imidazol-5-yl)-2-pyrimidinyl)phenyl)-4-(trifluoromethyl)-1H-imidazol-2-yl)-1-pyrrolidinyl)-N,N-diethyl-2-oxo-1-phenylethanamine]",9.00 to 12.00
8,"CN(C)[C@@H](C(=O)N1CCC[C@H]1c1ncc(-c2ccc(-c3ccc(-c4cnc([C@@H]5CCCN5C(=O)[C@@H](c5ccccc5)N(C)C)[nH]4)cn3)cc2)[nH]1)c1ccccc1 [Example 132, (1R)-2-((2S)-2-(5-(6-(4-(2-((2S)-1-((2R)-2-(dimethylamino)-2-phenylacetyl)-2-pyrrolidinyl)-1H-imidazol-5-yl)phenyl)-3-pyridinyl)-1H-imidazol-2-yl)-1-pyrrolidinyl)-N,N-dimethyl-2-oxo-1-phenylethanamine]",9.00 to 12.00
9,"COC(=O)N[C@@H](C(=O)N[C@@H](C)c1ncc(-c2cnc(-c3ccc(-c4cnc([C@@H]5CCCN5C(=O)[C@H](NC(=O)OC)c5ccccc5)[nH]4)cc3)cn2)[nH]1)c1ccccc1 [Example 152j-19, methyl ((1R)-2-((2S)-2-(5-(4-(5-(2-((1S)-1-(((2R)-2-((methoxycarbonyl)amino)-2-phenylace-tyl)amino)eth-yl)-1H-imidazol-5-yl)-2-pyrazinyl)phenyl)-1H-imidazol-2-yl)-1-pyrrolidinyl)-2-oxo-1-phenylethyl)carbamate]",9.00 to 12.00
10,"COC(=O)N[C@@H](C(=O)N[C@@H](C)c1ncc(-c2ccc(-c3ccc(-c4cnc([C@H](C)NC(=O)[C@H](NC(=O)OC)c5ccccc5)[nH]4)cn3)nc2)[nH]1)c1ccccc1 [Example 153c-7, dimethyl (2,2′-bipyridine-5,5′-diylbis(1H-imidazole-5,2-diyl(1S)-1,1-ethanediylimino((1R)-2-oxo-1-phenyl-2,1-ethanediyl))) biscarbamate]",7.00 to 9.00
11,"COC(=O)N[C@@H](C)C(=O)N1CCC[C@H]1c1nc(-c2cnc(-c3ccc(-c4cnc([C@@H]5CCCN5C(=O)[C@H](C)NC(=O)OC)[nH]4)c(F)c3)nc2)c[nH]1 [Example D67, methyl ((1S)-2-((2S)-2-(5-(2-fluoro-4-(5-(2-((2S)-1-(N-(methoxycarbonyl)-L-alanyl)-2-pyrrolidinyl)-1H-imidazol-5-yl)-2-pyrimidinyl)phenyl)-1H-imidazol-2-yl)-1-pyrrolidinyl)-1-methyl-2-oxoethyl)carbamate]",9.00 to 12.00
12,"COC(=O)N[C@@H](C(=O)N1CCC[C@H]1c1ncc(-c2ccc(-c3ccc(-c4cnc([C@@H]5CCCN5C(=O)C5CCN(C)CC5)[nH]4)cn3)cc2)[nH]1)c1ccccc1 [Example 142, methyl ((1R)-2-((2S)-2-(5-(4-(5-(2-((2S)-1-((1-methyl-4-piperidinyl)carbonyl)-2-pyrrolidinyl)-1H-imidazol-5-yl)-2-pyridinyl)phenyl)-1H-imidazol-2-yl)-1-pyrrolidinyl)-2-oxo-1-phenylethyl)carbamate]",7.00 to 9.00
13,"CN(C)[C@@H](C(=O)N1CSC[C@H]1c1ncc(-c2ccc(-c3ccc(-c4cnc([C@@H]5CSCN5C(=O)[C@@H](c5ccccc5)N(C)C)[nH]4)cc3)cc2)[nH]1)c1ccccc1 [Example 148, (1R,1′R)-2,2′-(4,4′-biphenyldiylbis(1H-imidazole-5,2-diyl(4R)-1,3-thiazolidine-4,3-diyl))bis(N,N-dimethyl-2-oxo-1-phenylethanamine)]",7.00 to 9.00
14,"COCC[C@H](NC(=O)OC)C(=O)N[C@H](c1nc(-c2ccc(-c3ccc(-c4c[nH]c([C@@H]5CCCN5C(=O)[C@H](CCOC)NC(=O)OC)n4)cc3)cc2)c[nH]1)C(C)C [Example R20, methyl ((1S)-3-methoxy-1-(((2S)-2-(4-(4′-(2-((1S)-1-((N-(methoxycarbonyl)-O-methyl-L-homoseryl)amino)-2-methylpropyl)-1H-imidazol-4-yl)-4-biphenylyl)-1H-imidazol-2-yl)-1-pyrrolidinyl)carbonyl)propyl)carbamate]",9.00 to 12.00
15,"COC(=O)N[C@H](C(=O)N1[C@H](c2ncc(-c3ccc(-c4ccc(-c5cnc([C@@H]6C[C@@H]7C[C@@H]7N6C(=O)[C@@H](NC(=O)OC)C(C)C)[nH]5)cc4)cc3)[nH]2)C[C@@H]2C[C@@H]21)C(C)C [Example M122, methyl((1S)-1-(((1S,3S,5S)-3-(5-(4′-(2-((1S,3S,5S)-2-((2S)-2-((methoxycarbonyl)amino)-3-methylbutanoyl)-2-azabicyclo[3.1.0]hex-3-yl)-1H-imidazol-5-yl)-4-biphenylyl)-1H-imidazol-2-yl)-2-azabicyclo[3.1.0]hex-2-yl)carbonyl)-2-methylpropyl)carbamate]",7.00 to 9.00
16,"COC(=O)N[C@@H](C(=O)N1CCC[C@H]1c1ncc(-c2ccc(-c3ccc(-c4cnc([C@@H]5CCCN5C(=O)[C@@H](c5ccccc5)N(C)C)[nH]4)cc3C)cc2)[nH]1)c1ccccc1 [Example 126, methyl ((1R)-2-((2S)-2-(5-(4′-(2-((2S)-1-((2R)-2-(dimethylamino)-2-phenylacetyl)-2-pyrrolidinyl)-1H-imidazol-5-yl)-2′-methyl-4-biphenylyl)-1H-imidazol-2-yl)-1-pyrrolidinyl)-2-oxo-1-phenylethyl)carbamate]",9.00 to 12.00

# Same assay, conditions: Table 2, read-out: Range (EC50 against HCV 1b)
row,SMILES,pEC50
1,COC(=O)N[C@H](C(=O)N1CCC[C@H]1c1ncc(-c2ccc(-c3ccc(-c4cnc([C@@H]5CCCN5C(=O)CNCc5ccccc5)[nH]4)cc3)cc2)[nH]1)C(C)C [LS22],9.00 to 12.00
2,CNCC(=O)N1CCC[C@H]1c1ncc(-c2ccc(-c3ccc(-c4cnc([C@@H]5CCCN5C(=O)[C@@H](NC(=O)OC)C(C)C)[nH]4)cc3)cc2)[nH]1 [LS20],9.00 to 12.00
3,O=C1N[C@H](C(=O)N2CCC[C@H]2c2ncc(-c3ccc(-c4ccc(-c5cnc([C@@H]6CCCN6C(=O)[C@@H]6CCOC(=O)N6)[nH]5)cc4)cc3)[nH]2)CCO1 [LS11],5.00 to 6.00
4,CCC(CC)[C@H](NC(=O)OC)C(=O)O [OL-5],9.00 to 12.00
